Results taken from patent US8680012B2, “4-phenyl-pyrane-3,5-diones,4-phenyl-thiopyrane-3,6-diones and cyclohexanetriones as novel herbicides” (Syngenta Crop Protection LLC, priority 2006, dated 2014).

test system: Amaranthus retroflexus (AMARE); assay: Example B post-emergence herbicidal activity, glasshouse pot test; assay type: in vivo; details: 312 h, rate 250 g/ha, evaluated after 13 days, read-out: Post-emergence activity AMARE (100=total damage to plant; 0=no damage to plant)
In short: (§1)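 One day (pre) or eight days (post) after sowing, pots received a spray of test compound formulated in acetone/water 50:50 with 0.5% Tween 20; plants were then kept under controlled glasshouse conditions with watering twice daily and assessed for damage (0–100) at 13 days.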

Compound | pest or weed control at 250 g/ha [%]
Cc1ccc(-c2ccc(Cl)cc2Cl)cc1C1=C(O)C(C)(C)S(=O)(=O)C(C)(C)C1=O [Compound C-8] | 0
CCc1ccc(-c2ccc(Cl)cc2Cl)cc1C1=C(O)C(C)(C)S(=O)(=O)C(C)(C)C1=O [Compound C-11] | 20
CCc1ccc(-c2ccc(Cl)c(F)c2)cc1C1=C(O)C(C)(C)[S+]([O-])C(C)(C)C1=O (stereo not shown) [Compound C-12] | 0
CCc1ccc(-c2ccc(Cl)c(F)c2)cc1C1=C(O)C(C)(C)S(=O)(=O)C(C)(C)C1=O [Compound C-13] | 20

test system: Setaria faberi (SETFA); assay: as above; assay type: in vivo; details: 312 h, rate 250 g/ha, evaluated after 13 days, read-out: Post-emergence activity SETFA (100=total damage to plant; 0=no damage to plant)
In short: as §1

Compound | pest or weed control at 250 g/ha [%]
Cc1ccc(-c2ccc(Cl)cc2Cl)cc1C1=C(O)C(C)(C)S(=O)(=O)C(C)(C)C1=O [Compound C-8] | 40
CCc1ccc(-c2ccc(Cl)cc2Cl)cc1C1=C(O)C(C)(C)S(=O)(=O)C(C)(C)C1=O [Compound C-11] | 30
CCc1ccc(-c2ccc(Cl)c(F)c2)cc1C1=C(O)C(C)(C)[S+]([O-])C(C)(C)C1=O (stereo not shown) [Compound C-12] | 90
CCc1ccc(-c2ccc(Cl)c(F)c2)cc1C1=C(O)C(C)(C)S(=O)(=O)C(C)(C)C1=O [Compound C-13] | 100

test system: Echinochloa crus-galli (ECHCG); assay: as above; assay type: in vivo; details: 312 h, rate 250 g/ha, evaluated after 13 days, read-out: Post-emergence activity ECHCG (100=total damage to plant; 0=no damage to plant)
In short: as §1

Compound | pest or weed control at 250 g/ha [%]
Cc1ccc(-c2ccc(Cl)cc2Cl)cc1C1=C(O)C(C)(C)S(=O)(=O)C(C)(C)C1=O [Compound C-8] | 60
CCc1ccc(-c2ccc(Cl)cc2Cl)cc1C1=C(O)C(C)(C)S(=O)(=O)C(C)(C)C1=O [Compound C-11] | 80
CCc1ccc(-c2ccc(Cl)c(F)c2)cc1C1=C(O)C(C)(C)[S+]([O-])C(C)(C)C1=O (stereo not shown) [Compound C-12] | 90
CCc1ccc(-c2ccc(Cl)c(F)c2)cc1C1=C(O)C(C)(C)S(=O)(=O)C(C)(C)C1=O [Compound C-13] | 100

test system: Avena fatua (AVEFA); assay: as above; assay type: in vivo; details: 312 h, rate 250 g/ha, evaluated after 13 days, read-out: Post-emergence activity AVEFA (100=total damage to plant; 0=no damage to plant)
In short: as §1

Compound | pest or weed control at 250 g/ha [%]
Cc1ccc(-c2ccc(Cl)cc2Cl)cc1C1=C(O)C(C)(C)S(=O)(=O)C(C)(C)C1=O [Compound C-8] | 0
CCc1ccc(-c2ccc(Cl)cc2Cl)cc1C1=C(O)C(C)(C)S(=O)(=O)C(C)(C)C1=O [Compound C-11] | 60
CCc1ccc(-c2ccc(Cl)c(F)c2)cc1C1=C(O)C(C)(C)[S+]([O-])C(C)(C)C1=O (stereo not shown) [Compound C-12] | 90
CCc1ccc(-c2ccc(Cl)c(F)c2)cc1C1=C(O)C(C)(C)S(=O)(=O)C(C)(C)C1=O [Compound C-13] | 90

test system: Alopecurus myosuroides (ALOMY); assay: as above; assay type: in vivo; details: 312 h, rate 250 g/ha, evaluated after 13 days, read-out: Post-emergence activity ALOMY (100=total damage to plant; 0=no damage to plant)
In short: as §1

Compound | pest or weed control at 250 g/ha [%]
Cc1ccc(-c2ccc(Cl)cc2Cl)cc1C1=C(O)C(C)(C)S(=O)(=O)C(C)(C)C1=O [Compound C-8] | 20
CCc1ccc(-c2ccc(Cl)cc2Cl)cc1C1=C(O)C(C)(C)S(=O)(=O)C(C)(C)C1=O [Compound C-11] | 70
CCc1ccc(-c2ccc(Cl)c(F)c2)cc1C1=C(O)C(C)(C)[S+]([O-])C(C)(C)C1=O (stereo not shown) [Compound C-12] | 80
CCc1ccc(-c2ccc(Cl)c(F)c2)cc1C1=C(O)C(C)(C)S(=O)(=O)C(C)(C)C1=O [Compound C-13] | 80

test system: Amaranthus retroflexus (AMARE); assay: Example B pre-emergence herbicidal activity, glasshouse pot test; assay type: in vivo; details: 312 h, rate 250 g/ha, evaluated after 13 days, read-out: Pre-emergence activity AMARE (100=total damage to plant; 0=no damage to plant)
In short: as §1

Compound | pest or weed control at 250 g/ha [%]
Cc1ccc(-c2ccc(Cl)cc2Cl)cc1C1=C(O)C(C)(C)S(=O)(=O)C(C)(C)C1=O [Compound C-8] | 0
CCc1ccc(-c2ccc(Cl)cc2Cl)cc1C1=C(O)C(C)(C)S(=O)(=O)C(C)(C)C1=O [Compound C-11] | 0
CCc1ccc(-c2ccc(Cl)c(F)c2)cc1C1=C(O)C(C)(C)[S+]([O-])C(C)(C)C1=O (stereo not shown) [Compound C-12] | 0
CCc1ccc(-c2ccc(Cl)c(F)c2)cc1C1=C(O)C(C)(C)S(=O)(=O)C(C)(C)C1=O [Compound C-13] | 0

test system: Setaria faberi (SETFA); assay: as above; assay type: in vivo; details: 312 h, rate 250 g/ha, evaluated after 13 days, read-out: Pre-emergence activity SETFA (100=total damage to plant; 0=no damage to plant)
In short: as §1

Compound | pest or weed control at 250 g/ha [%]
Cc1ccc(-c2ccc(Cl)cc2Cl)cc1C1=C(O)C(C)(C)S(=O)(=O)C(C)(C)C1=O [Compound C-8] | 0
CCc1ccc(-c2ccc(Cl)cc2Cl)cc1C1=C(O)C(C)(C)S(=O)(=O)C(C)(C)C1=O [Compound C-11] | 0
CCc1ccc(-c2ccc(Cl)c(F)c2)cc1C1=C(O)C(C)(C)[S+]([O-])C(C)(C)C1=O (stereo not shown) [Compound C-12] | 90
CCc1ccc(-c2ccc(Cl)c(F)c2)cc1C1=C(O)C(C)(C)S(=O)(=O)C(C)(C)C1=O [Compound C-13] | 80

test system: Echinochloa crus-galli (ECHCG); assay: as above; assay type: in vivo; details: 312 h, rate 250 g/ha, evaluated after 13 days, read-out: Pre-emergence activity ECHCG (100=total damage to plant; 0=no damage to plant)
In short: as §1

Compound | pest or weed control at 250 g/ha [%]
Cc1ccc(-c2ccc(Cl)cc2Cl)cc1C1=C(O)C(C)(C)S(=O)(=O)C(C)(C)C1=O [Compound C-8] | 0
CCc1ccc(-c2ccc(Cl)cc2Cl)cc1C1=C(O)C(C)(C)S(=O)(=O)C(C)(C)C1=O [Compound C-11] | 0
CCc1ccc(-c2ccc(Cl)c(F)c2)cc1C1=C(O)C(C)(C)[S+]([O-])C(C)(C)C1=O (stereo not shown) [Compound C-12] | 20
CCc1ccc(-c2ccc(Cl)c(F)c2)cc1C1=C(O)C(C)(C)S(=O)(=O)C(C)(C)C1=O [Compound C-13] | 30

test system: Avena fatua (AVEFA); assay: as above; assay type: in vivo; details: 312 h, rate 250 g/ha, evaluated after 13 days, read-out: Pre-emergence activity AVEFA (100=total damage to plant; 0=no damage to plant)
In short: as §1

Compound | pest or weed control at 250 g/ha [%]
Cc1ccc(-c2ccc(Cl)cc2Cl)cc1C1=C(O)C(C)(C)S(=O)(=O)C(C)(C)C1=O [Compound C-8] | 0
CCc1ccc(-c2ccc(Cl)cc2Cl)cc1C1=C(O)C(C)(C)S(=O)(=O)C(C)(C)C1=O [Compound C-11] | 80
CCc1ccc(-c2ccc(Cl)c(F)c2)cc1C1=C(O)C(C)(C)[S+]([O-])C(C)(C)C1=O (stereo not shown) [Compound C-12] | 90
CCc1ccc(-c2ccc(Cl)c(F)c2)cc1C1=C(O)C(C)(C)S(=O)(=O)C(C)(C)C1=O [Compound C-13] | 90

test system: Alopecurus myosuroides (ALOMY); assay: as above; assay type: in vivo; details: 312 h, rate 250 g/ha, evaluated after 13 days, read-out: Pre-emergence activity ALOMY (100=total damage to plant; 0=no damage to plant)
In short: as §1

Compound | pest or weed control at 250 g/ha [%]
Cc1ccc(-c2ccc(Cl)cc2Cl)cc1C1=C(O)C(C)(C)S(=O)(=O)C(C)(C)C1=O [Compound C-8] | 0
CCc1ccc(-c2ccc(Cl)cc2Cl)cc1C1=C(O)C(C)(C)S(=O)(=O)C(C)(C)C1=O [Compound C-11] | 0
CCc1ccc(-c2ccc(Cl)c(F)c2)cc1C1=C(O)C(C)(C)[S+]([O-])C(C)(C)C1=O (stereo not shown) [Compound C-12] | 0
CCc1ccc(-c2ccc(Cl)c(F)c2)cc1C1=C(O)C(C)(C)S(=O)(=O)C(C)(C)C1=O [Compound C-13] | 20
